Source: patent US7468449B2, “Phenyl-furan compounds as vitamin D receptor modulators” (Eli Lilly and Company, priority 2003, dated 2008)
“And” between values parts separate entries of the source, which are not always exact repeats. Equal values may be shown once. Read-outs that look alike come from different tables or passages of the source.

Experiments:
[1] = test system: rat osteocalcin promoter; assay: OCN (osteocalcin) promoter assay; assay type: cell-based; settings: RG-15 (ROS 17/2.8) cells, 48 hr treatment
Procedure: 3. The OCN (osteocalcin) Promoter Assay
The OCN Promoter Assay is an indicator and marker for osteoporosis. […] Preferred assay results are less than 50 nM.
(3) Materials and Method for The OCN Promoter Assay:
The activation of osteocalcin by VDR ligands was evaluated in a rat osteoblast-like cell line RG-15 (ROS 17/2.8) stably expressing rat osteocalcin promoter fused with luciferase reporter gene. […] After 24 hr, cells (in DMEM/F-12 medium +2% FBS) were treated with various concentrations of compounds, dissolved in DMSO. The final DMSO concentration remained at 0.01% (v/v). After 48 hr treatment, the medium was removed, cells were lysed with 50 μl of lysis buffer (From Luciferase reporter assay system, Roche Diagnostics, Indianapolis, Ind.) and assayed for luciferase activity using the Luciferase Reporter Gene Assay kit from Boehringer Mannheim as per manufacturer's specifications.

[2] = molecular target: T1, VDR (Homo sapiens, UniProt P11473); assay: VDR CTF (Caco-2 cell co-transfection) assay; assay type: cell-based; settings: Caco-2 cells, Gal-4-VDR-LBD co-transfection; Table 1
T1 construct: the receptor expression vector pGal-4-VDR-LBD (10 ng); expressed in transfected cells; host or cells: Caco-2 cells
T1 sequence (P11473 127-423 limits assumed): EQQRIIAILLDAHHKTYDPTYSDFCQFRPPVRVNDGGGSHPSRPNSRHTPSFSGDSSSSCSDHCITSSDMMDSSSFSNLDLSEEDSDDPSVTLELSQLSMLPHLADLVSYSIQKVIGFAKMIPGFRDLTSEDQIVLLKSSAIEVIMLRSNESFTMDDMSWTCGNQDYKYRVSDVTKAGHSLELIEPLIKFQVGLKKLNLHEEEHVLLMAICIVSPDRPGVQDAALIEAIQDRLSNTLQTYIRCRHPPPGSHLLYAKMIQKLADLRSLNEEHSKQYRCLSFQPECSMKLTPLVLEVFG
Procedure: 2. The Caco-2 Cell Co-transfection Assay:
The Caco-2 cell assay is an indicator for the undesirable condition of hypercalcemia. This co-transfection assay is a surrogate assay for in vivo calcemic activity of VDR ligands. […] Preferred assay results are greater than 1000 nM.
(§1) Step 4: FuGENE, DNA and Media Complex to-well plate • Add FuGENE-DNA-Media complex from step 3 to each plate • Incubate. […] Day 4: Luciferase Assay • Read the plates after drug treatment • Remove part of media from all the wells and leave remainder • Add Steady-Glo Luciferase Reagent mixture/wells • Incubate • Count each well using a Luminescence counter, Top Count NXT by Packard Set a delay between plates to reduce the background. (2) Materials and Method for The Caco-2 Cell Assay:
Caco-2 cells, grown in phenol red free, DMEM (Invitrogen, Carlsbad, Calif.) containing 10% charcoal-stripped FCS (Hyclone, Logan, Utah), were transfected with Fugene 6 reagent (Roche Diagnostics, Indianapolis, Ind.). Cells (5000/well) were plated 18 h before transfection in a 96 well plate. The Cells were transfected with Gal-4-responsive reporter pFRLuc (150 ng, Stratagene, La Jolla Calif.) and the receptor expression vector pGal-4-VDR-LBD (10 ng), along with Fugene 6 reagent (0.2 μl/well). The DNA-Fugene complex was formed by incubating the mixture for 30 min at room temperature. The cells were transfected in triplicate for 5 h, and treated with various concentrations of VDR ligands (form 0.01 nM to 10,000 nM concentration range) 18 h post-transfection. The luciferase activity was quantified using Steady-Glo reagent kit (Promega, Madison, Wis.) as per manufacturer's specifications.

[3] = test system: KERtr cells; assay: Keratinocyte proliferation assay; assay type: cell-based, Human; settings: BrdU incorporation
Procedure: 5. The Keratinocyte Proliferation Assay
This Assay is indicative for the treatment of psoriasis.
(5) The Keratinocyte Proliferation Assay:
KERtr cells (Human skin keratinocyte transformed with a retrovirus vector, obtained from ATCC) were plated in 96-well flat-bottomed plates (3000 cells/well) in 100 μl keratinocyte serum free medium supplemented with bovine pituitary extract in the absence of EGF (Life Technologies, Rockville, Md.) and incubated at 37° C. for two days. The cells were treated with various concentrations of VDR ligands (ten-fold serial dilution from 10,000 nM to 0.1 nM in triplicate), dissolved in 100 μl keratinocyte serum free medium supplemented with bovine pituitary extract in the absence of EGF and incubated at 37° C. for 72 hr. […] Potency values (IC50) values were determined as the concentration (nM) of compound that elicited a half-maximal response.

[4] = Mouse hypercalcemia assay; settings: six day hypercalcemia test, oral gavage, serum ionized calcium
Procedure: The Mouse Hypercalcemia Assay
The Mouse Hypercalcemia Assay is a six day hypercalcemia test for toxicity and selectivity. Acceptable test results are levels greater than 300 μg/kg/day. Preferred assay results are levels greater than 1000 μg/kg/day.
(4) Materials and Method for The Mouse Hypercalcemia Assay:
Weanling, virus-antibody-free, five to six weeks old female DBF mice (Harlan, Indianapolis, Ind.) are used for all the studies. Animals are allowed to acclimate to local vivarium conditions for 2 days. […] The animals then are divided into groups with 4-5 mice per group. Different doses of test compounds prepared in 10% Ethanol and 90% sesame oil are administered to mice orally via gavage for 6 days. 1α-25(OH)2D3 0.5 μg/kg/d was also given to one group of mice as the positive control. […] Raw data of group differences is assessed by analysis of variance (ANOVA) using Fisher's protected least significant difference (PLSD) where the significance level was P<0.05.

[5] = molecular target: T2, RXR-VDR heterodimer (Homo sapiens, UniProt P11473); assay: RXR-VDR heterodimerization assay (SaOS-2 cells); assay type: cell-based; settings: luciferase reporter, Table 1
T2 construct: Add the Gal-4-RXR-DEF and VP16-VDR-LBD; expressed in transfected cells; host or cells: SaOs-2 cells
T2 sequence (P11473 127-423 limits assumed): T1 sequence (P11473 127-423 limits assumed)
T2 sequence (P19793 201-462 partner limits assumed): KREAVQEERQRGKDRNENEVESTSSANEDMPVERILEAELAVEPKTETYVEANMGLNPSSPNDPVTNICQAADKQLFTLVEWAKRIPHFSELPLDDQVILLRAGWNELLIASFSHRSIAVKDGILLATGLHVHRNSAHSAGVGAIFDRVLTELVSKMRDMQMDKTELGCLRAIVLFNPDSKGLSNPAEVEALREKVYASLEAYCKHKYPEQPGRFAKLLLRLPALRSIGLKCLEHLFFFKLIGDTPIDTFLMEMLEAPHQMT
Excerpt: 1. The RXR-VDR Heterodimer Assay:
This assay provides the VDR activity of a test compound.
(1) Materials and Method for RXR-VDR Heterodimerization Assay:
Transfection/Treatment Media: • D-MEM Low Glucose Without Phenol Red only
Flat well Plates: • Use well plate to plate cells • Use Deep well plate sterile to make up treatment media.
Luciferase Assay Reagent: • Use Steady-Glo Luciferase Reagent from Promega (Cat #E2550) Consists of: • a. E2533 Assay Substrate, lyopholized product and • b. E2543 Assay Buffer. • Thaw at room temperature • Store Day 1: Cell Plating: • Cell Harvesting • Aspirate media from culture flask, rinse cells with HBSS and aspirate. • Add trypsin and incubate. • When cells appear detached, resuspend cells in growth media. • Transfer into a new flask with fresh growth media for passaging the cells. • Plate well plates and two extra plates A. Cell Count • Mix the cell suspension using pipette • Use Hematocytometer to count the cells • Load cell suspension onto the hemocytometer chamber • Count cells.
Step 1: DNA and Media • Add plain DMEM media to tubes for mixing the DNA • Add the Reporter gene pFR-LUC • Add the Gal-4-RXR-DEF and VP16-VDR-LBD
Step 2: FuGENE and Media • Prepare plain DMEM media in a ubes for mixing PuGENE • Add FuGENE 6 Transection Reagent • Incubate
Step 3: FuGENE, DNA and Media Complex • Add FuGENE Media complex from step 2 to DNA Media complex from step1 • Incubate
as §1, with “Assay: […]” for “Assay:”

[6] = Rattus norvegicus, 48 h, Table 1
[7] = 72 hr, Table 2, read-out: Kera. Prolif. IC50
[8] = Homo sapiens, Keratinocyte, 72 h, Table 4 comparison compounds, read-out: Kera. Prolif. IC50
[9] = Rattus norvegicus, 48 h, Table 3 comparison compounds

| Structure (SMILES) | EC50 [2] | IC50 [3, 7] | EC50 ([1]; Table 1) | EC50 [5] | further results |
| --- | --- | --- | --- | --- | --- |
| CCC(CC)(c1ccc(OCC(O)C(C)(C)C)c(C)c1)c1ccc(C(=O)N(C)C)o1 (racemic) [Ex. 2, 3′-[4-(2-hydroxy-3,3-dimethylbutoxy)-3-methylphenyl]-3′-[5-dimethylaminocarbonyl-2-furanyl]pentane] | 25 nM |  |  |  | EC50 [1, 6]: 3 nM |
| CCC(CC)(c1ccc(OCC(O)C(C)(C)C)c(C)c1)c1ccc(C(=O)N(C)C)o1 (single isomer, unassigned) [Ex. 3, 3′-[4-(2-hydroxy-3,3-dimethylbutoxy)-3-methylphenyl]-3′-[5-dimethylaminocarbonyl-2-furanyl]pentane] | 391 nM | 1 nM | 4.6 nM and 2.5 nM |  | Mouse Hypercal ([4]; Table 1): >2000 µg/kg/day |
| CCC(CC)(c1ccc(OCC(O)C(C)(C)C)c(C)c1)c1ccc(C(=O)N(C)C)o1 (single isomer, unassigned) [Ex. 4, 3′-[4-(2-hydroxy-3,3-dimethylbutoxy)-3-methylphenyl]-3′-[5-dimethylaminocarbonyl-2-furanyl]pentane] | 333 nM | 4 nM | 2 nM and 1 nM |  | Mouse Hypercal ([4]; Table 1): >2000 µg/kg/day |
| CCc1cc(C(CC)(CC)c2ccc(C(=O)N(C)C)o2)ccc1OCC(O)C(C)(C)C (single isomer, unassigned; enantiomer 1) [Ex. 10, 3′-[4-(2-hydroxy-3,3-dimethyl-butoxy)-3-ethylphenyl]-3′-[5-dimethylaminocarbonyl-2-furanyl]pentane enantiomer 1] | 191 nM | 7 nM |  |  | Mouse Hypercal ([4]; Table 1): >1000 µg/kg/day |
| CCCc1cc(C(CC)(CC)c2ccc(C(=O)N(C)C)o2)ccc1OCC(O)C(C)(C)C (single isomer, unassigned; enantiomer 1) [Ex. 12, 3′-[4-(2-hydroxy-3,3-dimethyl-butoxy)-3-n-propyl-phenyl]-3′-[5-dimethylaminocarbonyl-2-furanyl]pentane enantiomer 1] | 187 nM | 17 nM |  | 188 nM |  |
| CCC(CC)(c1ccc(OCC(O)CO)c(C)c1)c1ccc(OCC(O)C(C)(C)C)c(C)c1 (centres unmarked) [BB, 3-(4-{1-Ethyl-1-[4-(2-hydroxy-3,3-dimethyl-butoxy)-3-methyl-phenyl]-propyl}-2-methyl-phenoxy)-propane-1,2-diol, reference compound] |  |  |  |  | IC50 [3, 8]: 10 nM; EC50 [1, 9]: 8.24 nM; Mouse Hypercal μg/Kg/d ([4]; Table 3 comparison compounds): >=20 μg/Kg/d |
| Cc1cc(C2(c3ccc(OCC(=O)C(C)(C)C)c(C)c3)CCCCC2)ccc1OCC(=O)C(C)(C)C [CC, 1-(4-{1-[4-(3,3-Dimethyl-2-oxo-butoxy)-3-methyl-phenyl]-cyclohexyl}-2-methyl-phenoxy)-3,3-dimethyl-butan-2-one, reference compound] |  |  |  |  | EC50 [1, 9]: > 1000 nM |
| CCC(CC)(c1ccc(OCC(=O)C(C)(C)C)c(C)c1)c1ccc(OCC(=O)C(C)(C)C)c(C)c1 [DD, reference compound] |  |  |  |  | IC50 [3, 8]: 1060 nM; EC50 [1, 9]: 31.1 nM; Mouse Hypercal ([4]; Table 3 comparison compounds): 1000 µg/kg/day |
| CCC(CC)(c1ccc(OCC(=O)C(C)(C)C)c(C)c1)c1ccc(OC[C@H](O)C(C)(C)C)c(C)c1 [EE, reference compound] |  |  |  |  | EC50 [1, 9]: 341 nM; Mouse Hypercal ([4]; Table 3 comparison compounds): 1000 µg/kg/day |
| CCN(CC)C(=O)c1ccc(C(CC)(CC)c2ccc(OCC(=O)C(C)(C)C)c(C)c2)o1 [Ex 7, 3′-[4-(2-oxo-3,3-dimethyl-butoxy)-3-methylphenyl]-3′-[5-diethylaminocarbonyl-2-furanyl]-pentane] |  | 23 nM | 95 nM |  | Mouse Hypercal ([4]; Table 1): >9000 µg/kg/day |
| CCC(O)(CC)COc1ccc(C(CC)(CC)c2ccc(C(=O)N(C)C)o2)cc1C [Ex 14, 3′-[4-(2-hydroxy-2-ethylbutoxy)-3-methylphenyl]-3′-[5-dimethylaminocarbonyl-2-furanyl]pentane] | 635 nM |  |  | 104 nM | EC50 [1, 6]: 101 nM |
| CCC(C)c1cc(C(CC)(CC)c2ccc(C(=O)N(C)C)o2)ccc1OCC(=O)C(C)(C)C (centres unmarked) [Ex. 5, 3′-[4-(2-oxo-3,3-dimethylbutoxy)-3-(2-butyl)phenyl]-3′-[5-dimethylaminocarbonyl-furan-2-yl]pentane] | 129 nM |  | 44 nM | 135 nM and 40 nM | IC50 ([3]; Homo sapiens, Keratinocyte, 72 h, Table 2, read-out: Kera. Prolif. IC50): 1000 nM; EC50 [1, 6]: 33 nM |
| CCNC(=O)c1ccc(C(CC)(CC)c2ccc(OCC(=O)C(C)(C)C)c(C)c2)o1 [Ex. 6, 3′-[4-(2-oxo-3,3-dimethyl-butoxy)-3-methylphenyl]-3′-[5-ethylaminocarbonyl-2-furanyl]-pentane] | 315 nM | 112 nM | > 1000 nM | 320 nM |  |
| CCC(CC)(c1ccc(OCC(=O)C(C)(C)C)c(C)c1)c1oc(C(=O)N(C)C)cc1C [Ex. 8, 3′-[4-(2-oxo-3,3-dimethyl-butoxy)-3-methylphenyl]-3′-[5-dimethylaminocarbonyl-3-methyl-2-furanyl]-pentane] | 758 nM | > 1000 nM | 125 nM | 156 nM |  |
